Literature values as cited in US6979682B2, “Platelet-activating factor antagonist inhibition of angiogenesis and tumor growth induced by basic fibroblast” (Board of Supervisors of Louisiana State University and …, priority 2001, dated 2005).

System: PAF binding sites (microsomal intracellular membranes; synaptosomal plasma membrane)
Conditions: Marcheselli and Bazan, 1994; cited from earlier work

## COc1ccc(NC(=O)N2CCc3c(sc4c3C(c3ccccc3Cl)=NCc3nnc(C)n3-4)C2)cc1 [BN-50730, tetrahydro-4,7,8,10 methyl-1 (chloro-2 phenyl)-6 (methoxy-4 phenyl-carbomoyl)-9 pyrido [4′,3′-4,5] thieno [3,2-f] triazolo-1,2,4[4,3-α]diazepine-1,4]
  displacement of PAF from microsomal membranes: displace PAF from microsomal membranes
  displacement of PAF from the synaptosomal, plasma membrane: not from the synaptosomal, plasma membrane
